Experiment [1] has as its system Cabbage Looper (Trichloplusia ni, TRIPNI). As to the kind of experiment: Insecticidal test for cabbage looper (CL), 128-well diet tray assay. The following applies: Trichoplusia ni, 168 h; 50 μg/cm^2 on artificial diet, second instar larvae, five to seven days, 25° C.; read-out: CL rating, % Control (or Mortality). Type of experiment: in vivo. As for the experimental part: Insecticidal Test for Cabbage Looper (Trichloplusia ni, TRIPNI) (“CL”)
Bioassays on cabbage looper (CL; Trichloplusia ni: Lepidoptera) are conducted using a 128-well diet tray assay. One to five second instar CL larvae are placed in each well (3 mL) of the diet tray that had been previously filled with 1 mL of artificial diet to which 50 μg/cm^2 of the test compound (dissolved in 50 μL of 90:10 acetone-water mixture) had been applied (to each of eight wells) and then allowed to dry. Trays are covered with a clear self-adhesive cover, vented to allow gas exchange, and held at 25° C., 14:10 light-dark for five to seven days. Percent mortality is recorded for the larvae in each well; activity in the eight wells is then averaged. In the reporting of the results, the “BAW & CL Rating Table” was used.

Experiment [2] deals with Beet Armyworm (Spodoptera exigua, LAPHEG). The experiment is described as follows: Insecticidal test for beet armyworm (BAW), 128-well diet tray assay. The following applies: 168 h, 50 μg/cm^2 on artificial diet, second instar larvae, five to seven days, 25° C., read-out: BAW rating, % Control (or Mortality). Type of experiment: in vivo. As for the experimental part: Insecticidal Test for Beet Armyworm (Spodoptera exigua, LAPHEG) (“BAW”)
Bioassays on beet armyworm (BAW; Spodoptera exigua: Lepidoptera) are conducted using a 128-well diet tray assay. One to five second instar BAW larvae are placed in each well (3 mL) of the diet tray that had been previously filled with 1 mL of artificial diet to which 50 μg/cm^2 of the test compound (dissolved in 50 μL of 90:10 acetone-water mixture) had been applied (to each of eight wells) and then allowed to dry. Trays are covered with a clear self-adhesive cover, vented to allow gas exchange, and held at 25° C., 14:10 light-dark for five to seven days. Percent mortality is recorded for the larvae in each well; activity in the eight wells is then averaged. In the reporting of the results, the “BAW & CL Rating Table” was used.

As usually defined, the mortality is the share of the test organisms that died.

As to `CCC(C)Oc1ccc(C)cc1N1C(=O)CS/C1=N\C(=O)OCCc1ccc(-c2ncn(-c3ccc(OC(F)(F)F)cc3)n2)cc1` (centres unmarked) [A35, 4-(1-(4-(Trifluoromethoxy)phenyl)-1H-1,2,4-triazol-3-yl)phenethyl (Z)-(3-(2-(sec-butoxy)-5-methylphenyl)-4-oxothiazolidin-2-ylidene)carbamate], the mortality at 50 µg/cm2 in experiment [1] and in experiment [2] was 50 to 100% each time.
Consider `CCOc1ccccc1N1C(=O)CS/C1=N\C(=O)OCC(F)c1ccc(-c2ncn(-c3ccc(OC(F)(F)F)cc3)n2)cc1` (centres unmarked) [A40, 2-Fluoro-2-(4-(1-(4-(trifluoromethoxy)phenyl)-1H-1,2,4-triazol-3-yl)phenyl)ethyl (Z)-(3-(2-ethoxyphenyl)-4-oxothiazolidin-2-ylidene)carbamate], for which the mortality at 50 µg/cm2 in experiment [1] and in experiment [2] was 50 to 100% in each case.
Turning to `CC(C)c1ccc(Cl)cc1N1C(=O)CS/C1=N\C(=O)OCC(Cl)c1ccc(-c2ncn(-c3ccc(OC(F)(F)F)cc3)n2)cc1` (centres unmarked) [A48, 2-Chloro-2-(4-(1-(4-(trifluoromethoxy)phenyl)-1H-1,2,4-triazol-3-yl)phenyl)ethyl (Z)-(3-(5-chloro-2-isopropylphenyl)-4-oxothiazolidin-2-ylidene)carbamate], the mortality at 50 µg/cm2 in experiment [1] and in experiment [2] was 50 to 100% in each case.
As to `Cc1ccc(C(C)C)c(N2C(=O)CS/C2=N\C(=O)OCC(F)(F)c2ccc(-c3ncn(-c4ccc(OC(F)(F)F)cc4)n3)cc2)c1` [A4, 2,2-difluoro-2-(4-(1-(4-(trifluoromethoxy)phenyl)-1H-1,2,4-triazol-3-yl)phenyl)ethyl (Z)-(3-(2-isopropyl-5-methylphenyl)-4-oxothiazolidin-2-ylidene)carbamate], the mortality at 50 µg/cm2 in experiment [1] and in experiment [2] was 50 to 100% each time.
For `O=C(/N=C1\SCC(=O)N1c1cc(Cl)ccc1OCC(F)(F)F)OCC(F)c1ccc(-c2ncn(-c3ccc(OC(F)(F)F)cc3)n2)cc1` (centres unmarked) [A22, 2-Fluoro-2-(4-(1-(4-(trifluoromethoxy)phenyl)-1H-1,2,4-triazol-3-yl)phenyl)ethyl (Z)-(3-(5-chloro-2-(2,2,2-trifluoroethoxy)phenyl)-4-oxothiazolidin-2-ylidene)carbamate], the mortality at 50 µg/cm2 in experiment [1] and in experiment [2] was 50 to 100% in each case.
Regarding `Cc1ccc(C(C)C)c(N2C(=O)CS/C2=N\C(=O)OCCc2ccc(-c3ncn(-c4ccc(OC(F)(F)F)cc4)n3)cc2)c1` [A1, 4-(1-(4-(trifluoromethoxy)phenyl)-1H-1,2,4-triazol-3-yl)phenethyl (Z)-(3-(2-isopropyl-5-methylphenyl)-4-oxothiazolidin-2-ylidene)carbamate], the mortality at 50 µg/cm2 in experiment [1] and in experiment [2] was 50 to 100% throughout.
For `CCC(C)c1ccc(OC)cc1N1C(=O)CS/C1=N\C(=O)OCCc1ccc(-c2ncn(-c3ccc(OC(F)(F)F)cc3)n2)cc1` (centres unmarked) [A28, 4-(1-(4-(Trifluoromethoxy)phenyl)-1H-1,2,4-triazol-3-yl)phenethyl (Z)-(3-(2-(sec-butyl)-5-methoxyphenyl)-4-oxothiazolidin-2-ylidene)carbamate], the mortality at 50 µg/cm2 in experiment [1] and in experiment [2] was 50 to 100% in each case.
For the compound `CC(C)c1ccc(Cl)cc1N1C(=O)CS/C1=N\C(=O)OCCc1ccc(-c2ncn(-c3ccc(OC(F)(F)C(F)(F)F)cc3)n2)cc1` [A43, 4-(1-(4-(Perfluoroethoxy)phenyl)-1H-1,2,4-triazol-3-yl)phenethyl (Z)-(3-(5-chloro-2-isopropylphenyl)-4-oxothiazolidin-2-ylidene)carbamate], the mortality at 50 µg/cm2 in experiment [1] was 0%; in experiment [2], 50 to 100%.
In the case of `CCC(C)Oc1ccc(C)cc1N1C(=O)CS/C1=N\C(=O)OCC(F)c1ccc(-c2ncn(-c3ccc(OC(F)(F)F)cc3)n2)cc1` (centres unmarked) [A41, 2-Fluoro-2-(4-(1-(4-(trifluoromethoxy)phenyl)-1H-1,2,4-triazol-3-yl)phenyl)ethyl (Z)-(3-(2-(sec-butoxy)-5-methylphenyl)-4-oxothiazolidin-2-ylidene)carbamate], the mortality at 50 µg/cm2 in experiment [1] and in experiment [2] was 50 to 100% throughout.
With `O=C(/N=C1\SCC(=O)N1c1cc(Cl)ccc1OCC(F)(F)F)OCCc1ccc(-c2ncn(-c3ccc(OC(F)(F)F)cc3)n2)cc1` [A30, 4-(1-(4-(Trifluoromethoxy)phenyl)-1H-1,2,4-triazol-3-yl)phenethyl (Z)-(3-(5-chloro-2-(2,2,2-trifluoroethoxy)phenyl)-4-oxothiazolidin-2-ylidene)carbamate], the mortality at 50 µg/cm2 in experiment [1] and in experiment [2] was 50 to 100% in each case.
Consider `CCc1cccc(C)c1N1C(=O)CS/C1=N\C(=O)OCCc1ccc(-c2ncn(-c3ccc(OC(F)(F)F)cc3)n2)cc1` [A32, 4-(1-(4-(Trifluoromethoxy)phenyl)-1H-1,2,4-triazol-3-yl)phenethyl (Z)-(3-(2-ethyl-6-methylphenyl)-4-oxothiazolidin-2-ylidene)carbamate], for which the mortality at 50 µg/cm2 in experiment [1] was 50 to 100%; in experiment [2], 0%.
Turning to `CC(C)c1ccc(Cl)cc1N1C(=O)CS/C1=N\C(=O)OCC(F)c1ccc(-c2ncn(-c3ccc(OC(F)(F)C(F)(F)F)cc3)n2)cc1` (centres unmarked) [A25, 2-Fluoro-2-(4-(1-(4-(perfluoroethoxy)phenyl)-1H-1,2,4-triazol-3-yl)phenyl)ethyl (Z)-(3-(5-chloro-2-isopropylphenyl)-4-oxothiazolidin-2-ylidene)carbamate], the mortality at 50 µg/cm2 lay within 0 to 50% in experiment [1] and 50 to 100% in experiment [2].
The matching figures for `CC(Cc1ccc(-c2ncn(-c3ccc(OC(F)(F)F)cc3)n2)cc1)OC(=O)/N=C1\SCC(=O)N1c1ccccc1C(C)C` (centres unmarked) [A50, 1-(4-(1-(4-(Trifluoromethoxy)phenyl)-1H-1,2,4-triazol-3-yl)phenyl)propan-2-yl (Z)-(3-(2-isopropylphenyl)-4-oxothiazolidin-2-ylidene)carbamate]: 50 to 100% and 50 to 100%.
On the same counts, the results for `CC(C)c1ccccc1N1C(=O)CS/C1=N\C(=O)OCCc1ccc(-c2ncn(-c3ccc(OC(F)(F)C(F)(F)F)cc3)n2)cc1` [A45, 4-(1-(4-(Perfluoroethoxy)phenyl)-1H-1,2,4-triazol-3-yl)phenethyl (Z)-(3-(2-isopropylphenyl)-4-oxothiazolidin-2-ylidene)carbamate] are 50 to 100% and 50 to 100%.
On the same counts, the results for `Cc1ccc(OCC(F)(F)F)c(N2C(=O)CS/C2=N\C(=O)OCCc2ccc(-c3ncn(-c4ccc(OC(F)(F)F)cc4)n3)cc2)c1` [A31, 4-(1-(4-(Trifluoromethoxy)phenyl)-1H-1,2,4-triazol-3-yl)phenethyl (Z)-(3-(5-methyl-2-(2,2,2-trifluoroethoxy)phenyl)-4-oxothiazolidin-2-ylidene)carbamate] are 50 to 100% and 50 to 100%.
As to `CCC(C)Oc1ccc(C)cc1N1C(=O)CS/C1=N\C(=O)OC(C)Cc1ccc(-c2ncn(-c3ccc(OC(F)(F)F)cc3)n2)cc1` (centres unmarked) [A49, 1-(4-(1-(4-(Trifluoromethoxy)phenyl)-1H-1,2,4-triazol-3-yl)phenyl)propan-2-yl (Z)-(3-(2-(sec-butoxy)-5-methylphenyl)-4-oxothiazolidin-2-ylidene)carbamate], the mortality at 50 µg/cm2 in experiment [1] and in experiment [2] was 50 to 100% in each case.
